ChEMBL document CHEMBL2146395, “[¹⁸F]FE@SNAP-A new PET tracer for the melanin concentrating hormone receptor 1 (MCHR1): microfluidic and vessel-based approaches” (Bioorg Med Chem, 2012)
Active and inactive are the calls of the source. The rule behind the calls is not given here.

Columns and labels:
carboxyl esterase = experiment: Drug degradation after 6 hrs in presence of carboxyl esterase; format: physicochemical; settings: read-out: Drug degradation
[1] = Drug degradation in human plasma up to 120 mins; format: ADME, cell-free; settings: read-out: Drug degradation
[2] = target: T1, Melanin-concentrating hormone receptor 1 (Homo sapiens, UniProt Q99705); experiment: Binding affinity to human MCHR1 expressed in COS7 cells; format: cell-based, COS-7
T1 sequence (Q99705 whole entry): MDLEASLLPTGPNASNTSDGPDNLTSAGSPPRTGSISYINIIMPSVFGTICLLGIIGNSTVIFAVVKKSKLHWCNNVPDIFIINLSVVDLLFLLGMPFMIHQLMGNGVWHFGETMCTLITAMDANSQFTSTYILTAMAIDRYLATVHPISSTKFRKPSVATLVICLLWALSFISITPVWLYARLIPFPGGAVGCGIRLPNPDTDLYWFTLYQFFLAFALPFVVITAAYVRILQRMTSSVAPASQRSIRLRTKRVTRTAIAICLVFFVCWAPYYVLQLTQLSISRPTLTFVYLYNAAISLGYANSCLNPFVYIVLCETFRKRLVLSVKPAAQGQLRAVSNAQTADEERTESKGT

[3] = target: T1, Melanin-concentrating hormone receptor 1; experiment: Binding affinity to human MCHR1 expressed in CHO cell membranes; settings: tested as the 18F-labelled form

Q: Which metabolised at 6 h (carboxyl esterase) does the source give for `COCC1=C(C(=O)OCC[18F])C(c2ccc(F)c(F)c2)N(C(=O)NCCCN2CCC(c3cccc(NC(C)=O)c3)CC2)C(=O)N1` (centres undefined) here?
A: 20%

Q: What about the metabolised at 2 h [1] of the same compound?
A: < 5%

Q: For `COCC1=C(C(=O)OC)[C@H](c2ccc(F)c(F)c2)N(C(=O)NCCCN2CCC(c3cccc(NC(C)=O)c3)CC2)C(=O)N1`, which Kd [2] is on record?
A: 0.18 nM

Q: With `COCC1=C(C(=O)OCCF)C(c2ccc(F)c(F)c2)N(C(=O)NCCCN2CCC(c3cccc(NC(C)=O)c3)CC2)C(=O)N1` (centres undefined) as the compound, how does the Activity [3] read?
A: Active
